# Key:
# Type in all cases: in vivo
# STEME (Stellaria media) [1] = test: Greenhouse trial: PO application (test method 2); settings: g of AS/ha: (A) 120, (B) 1600, (C) 120
# Procedure: (§1) In the standard design of the test, seeds of various broad-leaved weed and weed grass biotypes (origins) were sown in a 8-13 cm diameter pot filled with natural soil of a standard field soil (loamy silt; non-sterile) and covered with a covering soil layer of about 1 cm. The pots were then cultivated in a greenhouse (12-16 h of light, temperature day 20-22° C., night 15-18° C.) until the time of application. The pots were treated on a laboratory track sprayer with spray liquors comprising the compositions according to the invention, mixtures of the prior art or components used individually. Application of the active compounds or active compound combinations formulated as WG, WP, EC or otherwise was carried out at the appropriate growth stages of the plants. The application rate for the spray application was 100-600 l of water/ha. After the treatment, the plants were returned to the greenhouses.
# (§2) About 3 weeks after the application, the soil action or/and foliar action was assessed visually according to a scale of 0-100% in comparison to an untreated comparative group: 0%=no noticeable effect compared to the untreated comparative group; 100%=full effect compared to the untreated comparative group.
# (§3) (notes: the term “seeds” also includes vegetative propagation forms such as, for example, rhizome pieces; abbreviations used: h light=hours of illumination, g of AS/ha=gram of active substance per hectare, l/ha=liter per hectare, S=sensitive, R=resistant) • 1. Pre-emergence action against weeds: seeds of various broad-leaved weed and weed grass biotypes (origins) were sown in a 8-13 cm diameter pot filled with natural soil of a standard field soil (loamy silt; non-sterile) and covered with a covering soil layer of about 1 cm. The pots were then cultivated in a greenhouse (12-16 h of light, temperature day 20-22° C., night 15-18° C.) until the time of application. The pots were treated at the BBCH stage 00-10 of the seeds/plants on a laboratory track sprayer with spray liquors comprising the compositions according to the invention, mixtures or components used individually, as WG, WP, EC or other formulations. The application rate for the spray application was 100-600 l of water/ha. After the treatment, the plants were returned to the greenhouses and, when required, treated with fertilizer and watered. • 2. Post-emergence action against weeds: seeds of various broad-leaved weed and weed grass biotypes (origins) were sown in a 8-13 cm diameter pot filled with natural soil of a standard field soil (loamy silt; non-sterile) and covered with a covering soil layer of about 1 cm. The pots were then cultivated in a greenhouse (12-16 h of light, temperature day 20-22° C., night 15-18° C.) until the time of application. The pots were treated at various BBCH stages between 11-25 of the seeds/plants, i.e. generally between two to three weeks after the start of the cultivation, on a laboratory track sprayer with spray liquors comprising the compositions according to the invention, mixtures or components used individually, as WG, WP, EC or other formulations. The application rate for the spray application was 100-600 l of water/ha. After the treatment, the plants were returned to the greenhouses and, when required, treated with fertilizer and watered. • 3. Pre-emergence action against weeds with and without incorporation of active compound: seeds of various broad-leaved weed and weed grass biotypes (origins) were sown in a 8-13 cm diameter pot filled with natural soil of a standard field soil (loamy silt; non-sterile). […]
# [2] = test system: APESV (Apera Spica-venti); test: Greenhouse trial: PO application (test method 2); settings: g of AS/ha: (A) 120, (B) 1600, (C) 120
# Procedure: as §1, §2, §3
# POAAN (Poa annua) [3] = test: Greenhouse trial: PO application (test method 2); settings: g of AS/ha: (A) 120, (B) 1600, (C) 120
# Procedure: as §1, §2, §3
# [4] = test system: APESV (Apera Spica-venti); test: Greenhouse trial: different sowing depths, PE application (test method 10); settings: g of AS/ha: (A) 90, (B) 1200, (C) 90; for activity APESV 5 mm (visual scale 0-100%): sowing depth 5 mm; for activity APESV 20 mm (visual scale 0-100%): sowing depth 20 mm
# Procedure: as §1, §2, §3
# [5] = test system: MATCH (Matricaria chamomilla); test: as above; settings: g of AS/ha: (A) 90, (B) 1200, (C) 90; for activity MATCH 5 mm (visual scale 0-100%): sowing depth 5 mm; for activity MATCH 20 mm (visual scale 0-100%): sowing depth 20 mm
# Procedure: as §1, §2, §3
# [6] = test system: TRZAS (Triticum aestivum, summer wheat); test: Greenhouse trial: pre-sowing application vs PE application (test method 6), crop, pre-sowing part; settings: Triticum aestivum (summer wheat), in vivo
# Procedure: as §1, §2
# (§4) (notes: the term “seeds” also includes vegetative propagation forms such as, for example, rhizome pieces; abbreviations used: h light=hours of illumination, g of AS/ha=gram of active substance per hectare, l/ha=liter per hectare, S=sensitive, R=resistant) • 1. Pre-emergence action against weeds: seeds of various broad-leaved weed and weed grass biotypes (origins) were sown in a 8-13 cm diameter pot filled with natural soil of a standard field soil (loamy silt; non-sterile) and covered with a covering soil layer of about 1 cm. The pots were then cultivated in a greenhouse (12-16 h of light, temperature day 20-22° C., night 15-18° C.) until the time of application. […]
# LOLPE (Lolium perenne) [7] = test: Greenhouse trial: different soil types (test method 8); settings: g of AS/ha: (A) 120, (B) 1200, (C) 90
# Procedure: as §1, §2, §3
# [8] = test system: MATCH (Matricaria chamomilla); test: as above; settings: g of AS/ha: (A) 120, (B) 1200, (C) 90; for Difference of the soil types, MATCH: IU/EC73 soil vs IU soil
# Procedure: as §1, §2, §3
# LOLPE (Lolium perenne) [9] = test: Greenhouse trial: different irrigation systems (test method 7); settings: g of AS/ha: (A) 120, (B) 1200, (C) 90
# Procedure: as §1, §2, §3
# [10] = test system: MATCH (Matricaria chamomilla); test: as above; settings: g of AS/ha: (A) 120, (B) 1200, (C) 90
# Procedure: as §1, §2, §3
# AVEFA (Avena fatua) [11] = test: as above; settings: g of AS/ha: (A) 120, (B) 1200, (C) 90
# Procedure: as §1, §2, §3
# [12] = test system: MATCH (Matricaria chamomilla), sensitive and resistant; test: Greenhouse trial: resistant biotypes, PE application (test method 9); settings: g of AS/ha: (A) 90, (B) 1200, (C) 90, iodosulfuron 10; for activity MATCH resistant (visual scale 0-100%): resistant biotype; for activity MATCH sensitive (visual scale 0-100%): sensitive biotype
# Procedure: as §1, §2, §3
# [13] = test system: STEME (Stellaria media), sensitive and resistant; test: as above; settings: g of AS/ha: (A) 90, (B) 1200, (C) 90, iodosulfuron 10; for activity STEME resistant (visual scale 0-100%): resistant biotype; for activity STEME sensitive (visual scale 0-100%): sensitive biotype
# Procedure: as §1, §2, §3
# [14] = test system: LOLSS (Lolium species), sensitive and resistant; test: as above; settings: g of AS/ha: (A) 90, (B) 1200, (C) 90, iodosulfuron 10; for activity LOLSS resistant (visual scale 0-100%): resistant biotype; for activity LOLSS sensitive (visual scale 0-100%): sensitive biotype
# Procedure: as §1, §2, §3
# [15] = test system: HORVS (Hordeum vulgare, summer barley); test: Greenhouse trial: different soil types (test method 8), crop; settings: Hordeum vulgare (summer barley), in vivo
# Procedure: as §1, §2, §3
# STEME (Stellaria media) [16] = test: Greenhouse trial: PE soil application vs incorporation into the soil (test methods 1, 3); settings: g of AS/ha: (A) 90, (B) 1200, (C) 90, (D) 300
# Procedure: as §1, §2, §3
# POAAN (Poa annua) [17] = test: as above; settings: g of AS/ha: (A) 90, (B) 1200, (C) 90, (D) 300
# Procedure: as §1, §2, §3
# LOLPE (Lolium perenne) [18] = test: Greenhouse trial: pre-sowing application vs PE application (test method 6)
# Procedure: as §1, §2, §3
# AVEFA (Avena fatua) [19] = test: as above
# Procedure: as §1, §2, §3
# [20] = test system: HORVS (Hordeum vulgare, summer barley); test: Greenhouse trial: selective PO action (test method 5); settings: Hordeum vulgare (summer barley), in vivo, po
# Procedure: as §1, §2, §4
# [21] = test system: HORVS (Hordeum vulgare, summer barley); test: Greenhouse trial: pre-sowing application vs PE application (test method 6), crop, PE part; settings: Hordeum vulgare (summer barley), in vivo
# Procedure: as §1, §2, §4
# [22] = PE application, g of AS/ha: (A) 90, (B) 1200, (C) 90
# [23] = application 7 days prior to sowing, g AS/ha: (A) 90, (B) 1200, (C) 90
SMILES,activity STEME (visual scale 0-100%) (STEME (Stellaria media) [1]) [%],activity APESV (visual scale 0-100%) [2] [%],activity POAAN (visual scale 0-100%) (POAAN (Poa annua) [3]) [%],activity APESV 5 mm (visual scale 0-100%) [4] [%],activity APESV 20 mm (visual scale 0-100%) [4] [%],activity MATCH 5 mm (visual scale 0-100%) [5] [%],activity MATCH 20 mm (visual scale 0-100%) [5] [%],activity on crop TRZAS (visual scale 0-100%) [6] [%],activity LOLPE IU soil (visual scale 0-100%) (LOLPE (Lolium perenne) [7]) [%],activity LOLPE IU/EC73 soil (visual scale 0-100%) (LOLPE (Lolium perenne) [7]) [%],activity MATCH IU soil (visual scale 0-100%) [8] [%],"Difference of the soil types, MATCH [8] [%]",activity MATCH IU/EC73 soil (visual scale 0-100%) [8] [%],activity LOLPE (visual scale 0-100%) (LOLPE (Lolium perenne) [9]; irrigation from above) [%],activity MATCH resistant (visual scale 0-100%) [12] [%],activity MATCH sensitive (visual scale 0-100%) [12] [%],activity STEME resistant (visual scale 0-100%) [13] [%],activity STEME sensitive (visual scale 0-100%) [13] [%],activity LOLSS resistant (visual scale 0-100%) [14] [%],activity LOLSS sensitive (visual scale 0-100%) [14] [%],also measured
"CC(C)N(C(=O)COc1nnc(C(F)(F)F)s1)c1ccc(F)cc1 [(A) flufenacet, N-(4-fluorophenyl)-N-(1-methylethyl)-2-[[5-(trifluoromethyl)-1,3,4-thiadiazol-2-yl]oxy]acetamide]",30,60,60,65,70,30,30,40,97,75,80,−75,5,80,30,30,0,0,10,85,"activity LOLPE (visual scale 0-100%) (LOLPE (Lolium perenne) [9]; irrigation from below): 78%; activity MATCH (visual scale 0-100%) ([10]; irrigation from above): 49%; activity MATCH (visual scale 0-100%) ([10]; irrigation from below): 35%; activity AVEFA (visual scale 0-100%) (AVEFA (Avena fatua) [11]; irrigation from above): 85%; activity AVEFA (visual scale 0-100%) (AVEFA (Avena fatua) [11]; irrigation from below): 50%; Difference Δ^D of the soil types, HORVS [15]: Δ^D − 10%; activity on crop HORVS IU soil (visual scale 0-100%) [15]: 10%; activity on crop HORVS IU/EC73 soil (visual scale 0-100%) [15]: 0%; activity STEME (visual scale 0-100%) (STEME (Stellaria media) [16]; PE application): 0%; activity STEME (visual scale 0-100%) (STEME (Stellaria media) [16]; incorporation into the soil): 20%; activity POAAN (visual scale 0-100%) (POAAN (Poa annua) [17]; PE application): 70%; activity POAAN (visual scale 0-100%) (POAAN (Poa annua) [17]; incorporation into the soil): 100%; activity LOLPE (visual scale 0-100%) (LOLPE (Lolium perenne) [18]; [22]): 75%; activity LOLPE (visual scale 0-100%) (LOLPE (Lolium perenne) [18]; [23]): 80%; activity AVEFA (visual scale 0-100%) (AVEFA (Avena fatua) [19]; [22]): 63%; activity AVEFA (visual scale 0-100%) (AVEFA (Avena fatua) [19]; [23]): 70%; activity on crop HORVS (visual scale 0-100%) [20]: 40%; activity on crop HORVS (visual scale 0-100%) [21]: 80%"
"CCCN(CCC)C(=O)SCc1ccccc1 [(B) prosulfocarb, S-(phenylmethyl) dipropylcarbamothioate]",30,20,30,50,20,0,0,20,33,0,10,−10,0,10,25,0,40,70,65,85,"activity LOLPE (visual scale 0-100%) (LOLPE (Lolium perenne) [9]; irrigation from below): 5%; activity MATCH (visual scale 0-100%) ([10]; irrigation from above): 0%; activity MATCH (visual scale 0-100%) ([10]; irrigation from below): 0%; activity AVEFA (visual scale 0-100%) (AVEFA (Avena fatua) [11]; irrigation from above): 5%; activity AVEFA (visual scale 0-100%) (AVEFA (Avena fatua) [11]; irrigation from below): 10%; Difference Δ^D of the soil types, HORVS [15]: Δ^D + 3%; activity on crop HORVS IU soil (visual scale 0-100%) [15]: 0%; activity on crop HORVS IU/EC73 soil (visual scale 0-100%) [15]: 3%; activity STEME (visual scale 0-100%) (STEME (Stellaria media) [16]; PE application): 30%; activity STEME (visual scale 0-100%) (STEME (Stellaria media) [16]; incorporation into the soil): 65%; activity POAAN (visual scale 0-100%) (POAAN (Poa annua) [17]; PE application): 35%; activity LOLPE (visual scale 0-100%) (LOLPE (Lolium perenne) [18]; [22]): 5%; activity LOLPE (visual scale 0-100%) (LOLPE (Lolium perenne) [18]; [23]): 0%; activity AVEFA (visual scale 0-100%) (AVEFA (Avena fatua) [19]; [22]): 10%; activity AVEFA (visual scale 0-100%) (AVEFA (Avena fatua) [19]; [23]): 10%; activity on crop HORVS (visual scale 0-100%) [20]: 30%; activity on crop HORVS (visual scale 0-100%) [21]: 15%"
COc1nc(C)nc(NC(=O)NS(=O)(=O)c2cc(I)ccc2C(=O)O)n1 [iodosulfuron],–,–,–,–,–,–,–,–,–,–,–,–,–,–,60,100,40,90,50,98,–
